# Patent US6376426B1, “Herbicidal 3-(heterocycl-1-yl)-uracils” (BASF Aktiengesellschaft, priority 1999, dated 2002)
# Tests used:
# Assay type in all cases: in vivo
# Abutilon theophrasti [1] = assay: Pre-emergence herbicidal test, ABUTH; set-up: key to herbicidal effect (0-9 scale) ABUTH / herbicidal rating ABUTH: A rating 0 indicates growth as untreated control; a rating 9 indicates death; conditions: for herbicidal rating ABUTH: PRE, 0-9 scale, 21 days after spraying
# [2] = test system: representative range of plants; assay: Pre-emergence herbicidal test, summary over the plants tested; conditions: 100 g/ha
# Method: (§1) To evaluate their herbicidal activity, compounds according to the invention are tested using a representative range of plants:
# (§2) The pre-emergence tests involve spraying a liquid formulation of the compound onto the soil in which the seeds of the plant species mentioned above has recently been sown.
# The soil used in the tests is a prepared horticultural loam. The formulations used in the tests are prepared from solutions of the test compounds in acetone containing 0.4% by weight of an alkylphenol/ethylene oxide condensate available under the trade mark TRITON X-155. […] In these tests untreated sown soil are used as controls.
# (§3) The herbicidal effects of the test compounds are assessed visually twenty-one days after spraying the foliage and the soil and are recorded on a 0-9 scale. A rating 0 indicates growth as untreated control, a rating 9 indicates death. An increase of 1 unit on the linear scale approximates to a 10% increase in the level of effect.
# Glycine max [3] = assay: Pre-emergence herbicidal test, GLXMA; set-up: key to herbicidal effect (0-9 scale) GLXMA / herbicidal rating GLXMA: A rating 0 indicates growth as untreated control; a rating 9 indicates death; conditions: for herbicidal rating GLXMA: PRE, 0-9 scale, 21 days after spraying
# Zea mays [4] = assay: Pre-emergence herbicidal test, ZEAMX; set-up: key to herbicidal effect (0-9 scale) ZEAMX / herbicidal rating ZEAMX: A rating 0 indicates growth as untreated control; a rating 9 indicates death; conditions: for herbicidal rating ZEAMX: PRE, 0-9 scale, 21 days after spraying
# Zea mays [5] = assay: Post-emergence herbicidal test, ZEAMX; set-up: key: A rating 0 indicates growth as untreated control; a rating 9 indicates death; conditions: 0-9 scale, 21 days after spraying
# In short: (§4)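 Herbicidal effect is recorded on a linear 0-9 scale, where 0 means growth like untreated control and 9 means death, with one unit approximating 10% more effect.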
# Setaria viridis = assay: Pre-emergence herbicidal test, SETVI; set-up: key to herbicidal effect (0-9 scale) SETVI / herbicidal rating SETVI: A rating 0 indicates growth as untreated control; a rating 9 indicates death; conditions: for herbicidal rating SETVI: PRE, 0-9 scale, 21 days after spraying
# [6] = test system: representative range of plants; assay: Herbicidal activity, pre- and post-emergence, overall; conditions: both in pre- and post-emergence
# Method: as §1, §2
# The soil used in the tests is a prepared horticultural loam. The formulations used in the tests are prepared from solutions of the test compounds in acetone containing 0.4% by weight of an alkylphenol/ethylene oxide condensate available under the trade mark TRITON X-155. These acetone solutions are diluted with water and the resulting formulations applied at dosage levels corresponding to 1000 g and 250 g/ha of active material per hectare in a volume equivalent to 900 litres per hectare. In these tests untreated sown soil are used as controls.
# These acetone solutions are diluted with water and the resulting formulations applied at dosage levels equivalent to about 1000, 800, 400, 250 or 100 g/ha per hectare of test compound per pot. After spraying, the plants are placed on greenhouse benches and are cared for in the usual manner, commensurate with conventional greenhouse practices.
# as §3
# Abutilon theophrasti [7] = assay: Post-emergence herbicidal test, ABUTH; set-up: key to herbicidal effect (0-9 scale) ABUTH / herbicidal rating ABUTH: A rating 0 indicates growth as untreated control; a rating 9 indicates death; conditions: for herbicidal rating ABUTH: POST, 0-9 scale, 21 days after spraying
# In short: as §4
# Ipomoea hederacea [8] = assay: Pre-emergence herbicidal test, IPOHE; set-up: key: A rating 0 indicates growth as untreated control; a rating 9 indicates death; conditions: 0-9 scale, 21 days after spraying
# Matricaria inodora = assay: Pre-emergence herbicidal test, MATIN; set-up: key to herbicidal effect (0-9 scale) MATIN / herbicidal rating MATIN: A rating 0 indicates growth as untreated control; a rating 9 indicates death; conditions: for herbicidal rating MATIN: PRE, 0-9 scale, 21 days after spraying
# [9] = test system: representative range of plants; assay: Post-emergence herbicidal test, summary over the plants tested; conditions: 100 g/ha
# Method: as §1
# […] After spraying, the plants are placed on greenhouse benches and are cared for in the usual manner, commensurate with conventional greenhouse practices.
# as §3
# Galium aparine = assay: Pre-emergence herbicidal test, GALAP; set-up: key to herbicidal effect (0-9 scale) GALAP / herbicidal rating GALAP: A rating 0 indicates growth as untreated control; a rating 9 indicates death; conditions: for herbicidal rating GALAP: PRE, 0-9 scale, 21 days after spraying
# Echinochloa crus-galli = assay: Pre-emergence herbicidal test, ECHCG; set-up: key: A rating 0 indicates growth as untreated control; a rating 9 indicates death; conditions: 0-9 scale, 21 days after spraying
# Ipomoea hederacea [10] = assay: Post-emergence herbicidal test, IPOHE; set-up: key to herbicidal effect (0-9 scale) IPOHE / herbicidal rating IPOHE: A rating 0 indicates growth as untreated control; a rating 9 indicates death; conditions: for herbicidal rating IPOHE: POST, 0-9 scale, 21 days after spraying
# In short: (§5)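 Compounds in acetone solution were diluted with water and sprayed post-emergence onto foliage and soil at about 1000, 800, 400, 250 or 100 g/ha. Plants were kept on greenhouse benches under conventional care.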
# Alopecurus myosuroides [11] = assay: Post-emergence herbicidal test, ALOMY; set-up: key: A rating 0 indicates growth as untreated control; a rating 9 indicates death; conditions: 0-9 scale, 21 days after spraying
# In short: as §5
# Alopecurus myosuroides [12] = assay: Pre-emergence herbicidal test, ALOMY; set-up: key to herbicidal effect (0-9 scale) ALOMY / herbicidal rating ALOMY: A rating 0 indicates growth as untreated control; a rating 9 indicates death; conditions: PRE, 0-9 scale, 21 days after spraying
# Glycine max [13] = assay: Post-emergence herbicidal test, GLXMA; set-up: key: A rating 0 indicates growth as untreated control; a rating 9 indicates death; conditions: 0-9 scale, 21 days after spraying
# In short: as §4
compound,measurement,setting,value
"Cn1c(C(F)(F)F)cc(=O)n(-n2ccc3c(Cl)cccc32)c1=O [Example 169, 3-(4-Chloro-indol-1-yl)-1-methyl-6-trifluoromethylpyrimidine-2,4-dione]",herbicidal rating ABUTH,Abutilon theophrasti [1]; 12.5 g/ha,5
same,herbicidal rating ABUTH,Abutilon theophrasti [1]; 25 g/ha,9
same,herbicidal rating ABUTH,Abutilon theophrasti [1]; 100 g/ha,9
same,herbicidal rating ABUTH,Abutilon theophrasti [1]; 400 g/ha,9
same,control of Abutilon,"Abutilon theophrasti [1]; pre-emergence, 25 g/ha",good control
same,control of the weeds,[2],all of the weeds except Alopecurus were well controlled
same,herbicidal rating GLXMA,Glycine max [3]; 12.5 g/ha,0
same,herbicidal rating GLXMA,Glycine max [3]; 25 g/ha,0
same,herbicidal rating GLXMA,Glycine max [3]; 100 g/ha,3
same,herbicidal rating GLXMA,Glycine max [3]; 400 g/ha,5
same,selectivity in soy beans,"Glycine max [3]; pre-emergence, 25 g/ha",Surprisingly good selectivity
same,herbicidal rating ZEAMX,Zea mays [4]; 12.5 g/ha,0
same,herbicidal rating ZEAMX,Zea mays [4]; 25 g/ha,1
same,herbicidal rating ZEAMX,Zea mays [4]; 100 g/ha,3
same,herbicidal rating ZEAMX,Zea mays [4]; 400 g/ha,7
same,selectivity in maize,"Zea mays [4]; pre-emergence, 25 g/ha",Surprisingly good selectivity
same,herbicidal rating ZEAMX,Zea mays [5]; 25 g/ha,0
same,herbicidal rating ZEAMX,Zea mays [5]; 100 g/ha,3
same,herbicidal rating ZEAMX,Zea mays [5]; 400 g/ha,5
same,herbicidal rating SETVI,Setaria viridis; 12.5 g/ha,8
same,herbicidal rating SETVI,Setaria viridis; 25 g/ha,9
same,herbicidal rating SETVI,Setaria viridis; 100 g/ha,9
same,herbicidal rating SETVI,Setaria viridis; 400 g/ha,9
same,control of Setaria,"Setaria viridis; pre-emergence, 25 g/ha",good control
same,herbicidal performance,[6],excellent performance
same,herbicidal rating ABUTH,Abutilon theophrasti [7]; 25 g/ha,9
same,herbicidal rating ABUTH,Abutilon theophrasti [7]; 100 g/ha,9
same,herbicidal rating ABUTH,Abutilon theophrasti [7]; 400 g/ha,9
same,control of Abutilon,"Abutilon theophrasti [7]; post-emergence, 12.5 g/ha",excellent control
same,herbicidal rating IPOHE,Ipomoea hederacea [8]; 12.5 g/ha,2
same,herbicidal rating IPOHE,Ipomoea hederacea [8]; 25 g/ha,4
same,herbicidal rating IPOHE,Ipomoea hederacea [8]; 100 g/ha,8
same,herbicidal rating IPOHE,Ipomoea hederacea [8]; 400 g/ha,9
same,herbicidal rating MATIN,Matricaria inodora; 12.5 g/ha,8
same,herbicidal rating MATIN,Matricaria inodora; 25 g/ha,8
same,herbicidal rating MATIN,Matricaria inodora; 100 g/ha,9
same,herbicidal rating MATIN,Matricaria inodora; 400 g/ha,9
same,control of Matricaria,"Matricaria inodora; pre-emergence, 25 g/ha",good control
same,control of the weeds,[9],good cross spectrum control on both broadleaf weeds and grasses
same,herbicidal rating GALAP,Galium aparine; 12.5 g/ha,7
same,herbicidal rating GALAP,Galium aparine; 25 g/ha,8
same,herbicidal rating GALAP,Galium aparine; 100 g/ha,9
same,herbicidal rating GALAP,Galium aparine; 400 g/ha,9
same,control of Galium,"Galium aparine; pre-emergence, 25 g/ha",good control
same,herbicidal rating ECHCG,Echinochloa crus-galli; 12.5 g/ha,4
same,herbicidal rating ECHCG,Echinochloa crus-galli; 25 g/ha,7
same,herbicidal rating ECHCG,Echinochloa crus-galli; 100 g/ha,9
same,herbicidal rating ECHCG,Echinochloa crus-galli; 400 g/ha,9
same,herbicidal rating IPOHE,Ipomoea hederacea [10]; 25 g/ha,9
same,herbicidal rating IPOHE,Ipomoea hederacea [10]; 100 g/ha,9
same,herbicidal rating IPOHE,Ipomoea hederacea [10]; 400 g/ha,9
same,control of Ipomoea,"Ipomoea hederacea [10]; post-emergence, 12.5 g/ha",excellent control
same,herbicidal rating ALOMY,Alopecurus myosuroides [11]; 25 g/ha,2
same,herbicidal rating ALOMY,Alopecurus myosuroides [11]; 100 g/ha,6
same,herbicidal rating ALOMY,Alopecurus myosuroides [11]; 400 g/ha,9
same,herbicidal rating ALOMY,Alopecurus myosuroides [12]; 12.5 g/ha,2
same,herbicidal rating ALOMY,Alopecurus myosuroides [12]; 25 g/ha,5
same,herbicidal rating ALOMY,Alopecurus myosuroides [12]; 100 g/ha,7
same,herbicidal rating ALOMY,Alopecurus myosuroides [12]; 400 g/ha,9
same,herbicidal rating GLXMA,Glycine max [13]; 25 g/ha,5
same,herbicidal rating GLXMA,Glycine max [13]; 100 g/ha,7
same,herbicidal rating GLXMA,Glycine max [13]; 400 g/ha,9
